# Data published in patent publication EP0427843B1, “SPECIFIC INHIBITOR FOR RETROVIRUS REVERSE TRANSCRIPTASE, AND ITS APPLICATION AS A MEDICAMENT” (BLOUGH, Herbert A., Dr., priority 1989, dated 1990).
# Entries after “also recorded” stand apart in the source; their conditions may differ. Like-named read-outs stand apart in the source and are kept apart here.
# How the values were obtained:
# HIV-RT = biological target: T1, HIV-RT (Human immunodeficiency virus type 1 group M subtype B, UniProt P03366); type: biochemical; conditions: for effet inhibiteur sur la HIV1-RT: qualitative, autoradiogram, aurothiopropanol 0 à 2 mM (Figure 7), AZT 0,1 »M à 1 mM (Figure 8)
# T1 construct: Transcriptase inverse: l'enzyme active du point de vue enzymatique, purifiée, clonée, a été préparée dans Escherichia coli; made in house; host or cells: Escherichia coli
# Source text: (§1) Transcriptase inverse: l'enzyme active du point de vue enzymatique, purifiée, clonée, a été préparée dans Escherichia coli à l'aide de la technique précédemment décrite par Hizi A., McGill C., Hugues G., Proc. Natl. Acad. Sci. USA 85, 1218-1222 (1988). Le dosage de la R.T. a été effectuée à l'aide de matrice d'ADN (au hasard et avec des séquences HIV) et de primer(s) marqué(s) (brins d'initiation) par radioactivité. Après formation de complexes entre la matrice d'ADN et les primers, la R.T. a été ajoutée et incubée. Diverses concentrations d'inhibiteur ont été ajoutées soit avant soie après que le, ou les complexes, aient été formés. L'initiation et l'élongation de la chaîne ont été étudiées à l'aide de P.A.G.E. à 20% [Shane D.L., Goodman M.F., Echols N.A., Nucleic Acids Res. 16, 1218-1222 (1988] et les produits analysés par autoradiographie. Différentes matrices et conditions ont été utilisées pour distinguer ces fonctions. En outre, de la R.T. disponible dans le commerce provenant du virus de myéloblastose aviaire a été également utilisée.
# (§2) Le dosage de l'effet des inhibiteurs sur la R.T. était le suivant: • A) On prépare un mélange réactionnel de […] contenant: • . ADN matrice 10⁻⁸M • . ADN primer 4 x 10⁻¹⁰M/ADN primer 5' [³²P] • . 2 »l de tampon HIV-RT ([10x] (500 mM Tris-HCl • . pH 7,8; 60 mM MgCl₂; 10 mM dithiothréitol; 500 mM KCl); et • . de l'eau bidistillée pendant […] à 37°C. • B) On ajoute 1 unité de HIV-RT (une unité correspond à l'activité enzymatique qui incorpore 1 nmol de [³H] TMP en produit insoluble dans l'acide en 10 mn à 37°C avec du poly(A)-(dT)₁₅ comme substrat) pendant 10 min à 37°C. • C) On ajoute un mélange de désoxy nucléotide triphosphates (dXTPs) contenant 0,25 mM de chaque dXTP pour un volume de mélange final de 20 »l pendant 5 minutes à 37°C. • D) Pour tester le ou les inhibiteurs, diverses concentrations de ces produits (sous un volume constant) sont ajoutées (selon Etape B) au mélange des dXTPs. Le mélange réactionnel est incubé à 37°C pendant […]. • E) On fait cesser la réaction par de l'EDTA 10 nM dans le formamide à 90%. • F) Des échantillons sont chauffés à 90°C pendant 5 mn et les produits séparés par électrophorèse sur gels de Polyacrylamide à 20% en présence d'urée. • G) Les variations dans l'élongation, la synthèse, etc... sont détectées par autoradiographie et testées par comparaison avec des "témoins" sans inhibiteur.
# Le mélange est incubé pendant 5 mn à 37°C. • dans le cas (c) l'enzyme, l'hybride primer-matrice et 2 des 4 désoxy-ribonucléotides sont ajoutés et incubés pendant 5 mn à 37°C.
# [1] = system: glycosylation de gp120 ou gp41; test: Effect on viral glycoprotein synthesis (glycosylation) in infected cells; type: cell-based, HIV-1; conditions: for minimal effective concentration: Human immunodeficiency virus 1, read-out: concentration efficace sur la glycosylation
# Source text: Effets de médicaments sur la synthèse de glycoprotéines: des cellules CEM ou MT-4 ont été infectées par HIV-1; 4 heures après l'infection, une moitié des cellules a été marquées avec [2³H]Man ou [6³H]GlcNAc à 2,5-5,9 »Ci. Les milieux ont été changés et de l'inhibiteur frais (potentiel) et 2,5 »Ci (ou 5 »Ci) de l'isotope approprié ont été ajoutés. Les cellules ont été lysées à trois et sept jours après l'infection et les lysats cellulaires ont été clarifiées par centrifugation à 12 000 g; qp120 et gp41 ont été l'une et l'autre isolées par immunoprécipitation sur colonnes et les produits, analysés sur gels de polyacrylamide à 12% et fluorographie [Kumarasamy R & Blough H.A., Biochem. Biophys. Res. Commun. 109, 1108-1115 (1982)]. Les virus ont été récoltés et purifiés par centrifugation à vitesse contrôlée sur gradients préformés de citrate de sodium ou métrazamide à 5-40%, et analysés de façon similaire.
# AMV-RT = test: AMV reverse transcriptase inhibition, primer extension, PAGE and autoradiography; type: biochemical, virus de myéloblastose aviaire; conditions: for effet sur la R.T. (AMV): qualitative
# Source text: as §1, §2
# [2] = Cytotoxicity (cell doubling time, trypan blue exclusion); type: cell-based; conditions: human, alex and mt-4 cells; cytotoxic at concentrations exceeding the value; read-out: concentrations cytotoxiques
# Source text: (§3) Il a également été montré que les composés de l'invention sont moins toxiques que leurs analogues de base, en mesurant, à l'aide du microscope photonique, le temps de duplication cellulaire et l'exclusion du bleu trypan.
# cellules ALEX et MT-4 = test: as above; type: cell-based
# Source text: as §3
# [3] = biological target: T2, DNA polymérase alpha de placenta humain (Homo sapiens, UniProt P09884); test: Effect on human DNA polymerase alpha; type: biochemical
# T2 construct: la DNA polymérase alpha de placenta humain; tissue Dr Olga Lavrik, Novosibirsk (gift); host or cells: human placenta
# [4] = biological target: T3, DNA polymérase I de Escherichia coli (Escherichia coli, UniProt P00582); test: Effect on E. coli DNA polymerase I; type: biochemical
# T3 construct: purchased BRL
# [5] = biological target: T4, DNA polymérase alpha de foie de rat (Rattus norvegicus, UniProt O89042); test: Effect on rat DNA polymerase alpha; type: biochemical; conditions: partially purified enzyme; sensitive only above the value
# T4 construct: la DNA polymérase alpha de foie de rat partiellement purifiée; tissue Dr A M de Recondo, Villejuif (gift); host or cells: rat liver
# T4 sequence (O89042 1-1451): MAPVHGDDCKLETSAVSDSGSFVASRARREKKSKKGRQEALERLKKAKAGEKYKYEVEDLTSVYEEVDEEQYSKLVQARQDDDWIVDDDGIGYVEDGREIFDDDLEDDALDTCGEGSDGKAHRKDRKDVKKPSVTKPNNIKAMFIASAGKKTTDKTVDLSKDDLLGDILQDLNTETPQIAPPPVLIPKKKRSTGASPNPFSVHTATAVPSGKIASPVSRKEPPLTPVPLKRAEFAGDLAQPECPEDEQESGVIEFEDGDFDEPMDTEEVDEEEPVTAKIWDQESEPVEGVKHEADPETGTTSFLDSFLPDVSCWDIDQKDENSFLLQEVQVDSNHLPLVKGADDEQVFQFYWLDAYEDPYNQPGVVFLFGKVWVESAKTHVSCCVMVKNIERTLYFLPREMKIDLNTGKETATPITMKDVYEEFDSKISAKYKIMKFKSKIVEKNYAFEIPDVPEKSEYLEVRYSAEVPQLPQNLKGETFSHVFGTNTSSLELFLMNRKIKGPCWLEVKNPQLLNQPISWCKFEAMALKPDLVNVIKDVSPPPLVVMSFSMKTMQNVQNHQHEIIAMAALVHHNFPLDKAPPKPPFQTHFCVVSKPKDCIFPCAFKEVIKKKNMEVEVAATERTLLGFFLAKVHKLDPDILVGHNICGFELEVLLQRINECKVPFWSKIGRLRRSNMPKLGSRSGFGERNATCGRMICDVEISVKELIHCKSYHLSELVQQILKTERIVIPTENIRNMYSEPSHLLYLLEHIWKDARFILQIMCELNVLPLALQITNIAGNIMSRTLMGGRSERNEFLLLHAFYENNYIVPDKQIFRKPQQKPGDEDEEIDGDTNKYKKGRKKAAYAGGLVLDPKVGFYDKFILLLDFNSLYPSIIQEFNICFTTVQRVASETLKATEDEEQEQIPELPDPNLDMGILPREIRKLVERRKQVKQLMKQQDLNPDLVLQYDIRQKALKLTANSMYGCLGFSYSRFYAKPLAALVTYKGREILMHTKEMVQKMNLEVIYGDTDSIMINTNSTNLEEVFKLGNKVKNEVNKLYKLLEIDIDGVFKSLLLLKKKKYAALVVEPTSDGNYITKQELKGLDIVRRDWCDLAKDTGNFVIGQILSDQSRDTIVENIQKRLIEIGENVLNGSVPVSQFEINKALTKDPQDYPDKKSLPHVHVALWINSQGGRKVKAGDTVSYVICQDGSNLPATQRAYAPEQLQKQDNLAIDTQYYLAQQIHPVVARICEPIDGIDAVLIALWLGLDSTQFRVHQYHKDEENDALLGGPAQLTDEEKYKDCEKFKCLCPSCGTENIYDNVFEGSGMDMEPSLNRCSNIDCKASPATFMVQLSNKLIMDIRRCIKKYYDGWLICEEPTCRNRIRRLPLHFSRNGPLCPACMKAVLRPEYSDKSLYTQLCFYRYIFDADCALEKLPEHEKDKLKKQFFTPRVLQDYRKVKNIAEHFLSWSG
# [6] = biological target: association enzyme-matrice (HIV1-RT / hybride primer-matrice) (Human immunodeficiency virus type 1 group M subtype B, UniProt P03366); conditions: enzyme 0,15 nM à 1nM; aurothioglucose 0,1 »M à 100 »M
# Source text: On aussi effectué la filtration de l'enzyme et de l'hybride primeur-matrice en présence de concentration croissante de l'aurothioglucose. Les conditions expérimentales sont celles décrites précédemment.
# T2 sequence (P09884 whole entry): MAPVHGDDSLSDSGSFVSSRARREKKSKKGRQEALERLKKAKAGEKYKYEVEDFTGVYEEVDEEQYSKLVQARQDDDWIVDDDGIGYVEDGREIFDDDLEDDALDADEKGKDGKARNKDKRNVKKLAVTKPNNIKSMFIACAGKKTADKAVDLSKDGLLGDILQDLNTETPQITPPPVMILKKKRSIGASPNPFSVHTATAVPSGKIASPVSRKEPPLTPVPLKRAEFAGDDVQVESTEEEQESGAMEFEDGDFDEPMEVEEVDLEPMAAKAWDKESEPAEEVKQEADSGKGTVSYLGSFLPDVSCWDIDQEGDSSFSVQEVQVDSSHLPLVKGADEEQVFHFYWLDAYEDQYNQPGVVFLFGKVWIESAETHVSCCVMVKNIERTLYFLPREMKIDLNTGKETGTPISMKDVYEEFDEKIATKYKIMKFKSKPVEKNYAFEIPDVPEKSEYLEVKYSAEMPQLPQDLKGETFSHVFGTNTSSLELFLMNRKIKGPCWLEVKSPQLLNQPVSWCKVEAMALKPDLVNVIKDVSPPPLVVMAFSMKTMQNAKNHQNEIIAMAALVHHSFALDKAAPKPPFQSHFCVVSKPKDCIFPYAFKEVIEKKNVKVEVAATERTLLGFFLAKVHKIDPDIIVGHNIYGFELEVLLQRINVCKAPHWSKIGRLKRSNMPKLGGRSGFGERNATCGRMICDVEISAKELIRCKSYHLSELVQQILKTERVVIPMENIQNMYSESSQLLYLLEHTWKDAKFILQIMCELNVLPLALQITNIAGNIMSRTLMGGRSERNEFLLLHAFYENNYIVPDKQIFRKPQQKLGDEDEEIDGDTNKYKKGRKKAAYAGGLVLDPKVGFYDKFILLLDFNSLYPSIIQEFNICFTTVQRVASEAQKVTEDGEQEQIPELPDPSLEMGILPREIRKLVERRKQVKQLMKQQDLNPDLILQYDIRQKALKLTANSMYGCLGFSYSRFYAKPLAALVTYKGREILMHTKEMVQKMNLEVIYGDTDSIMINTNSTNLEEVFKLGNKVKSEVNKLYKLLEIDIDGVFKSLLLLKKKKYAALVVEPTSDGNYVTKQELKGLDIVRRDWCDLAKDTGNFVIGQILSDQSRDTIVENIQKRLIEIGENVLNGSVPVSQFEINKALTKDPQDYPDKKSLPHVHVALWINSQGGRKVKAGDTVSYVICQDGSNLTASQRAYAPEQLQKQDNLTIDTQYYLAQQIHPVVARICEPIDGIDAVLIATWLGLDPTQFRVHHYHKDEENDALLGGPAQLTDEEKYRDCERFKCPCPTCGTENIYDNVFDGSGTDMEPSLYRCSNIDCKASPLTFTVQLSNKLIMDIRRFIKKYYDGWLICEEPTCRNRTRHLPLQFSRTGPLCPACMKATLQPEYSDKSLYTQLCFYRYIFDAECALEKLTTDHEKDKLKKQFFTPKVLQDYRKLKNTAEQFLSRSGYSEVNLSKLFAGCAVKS
# T2 sequence (Q14181 whole entry partner): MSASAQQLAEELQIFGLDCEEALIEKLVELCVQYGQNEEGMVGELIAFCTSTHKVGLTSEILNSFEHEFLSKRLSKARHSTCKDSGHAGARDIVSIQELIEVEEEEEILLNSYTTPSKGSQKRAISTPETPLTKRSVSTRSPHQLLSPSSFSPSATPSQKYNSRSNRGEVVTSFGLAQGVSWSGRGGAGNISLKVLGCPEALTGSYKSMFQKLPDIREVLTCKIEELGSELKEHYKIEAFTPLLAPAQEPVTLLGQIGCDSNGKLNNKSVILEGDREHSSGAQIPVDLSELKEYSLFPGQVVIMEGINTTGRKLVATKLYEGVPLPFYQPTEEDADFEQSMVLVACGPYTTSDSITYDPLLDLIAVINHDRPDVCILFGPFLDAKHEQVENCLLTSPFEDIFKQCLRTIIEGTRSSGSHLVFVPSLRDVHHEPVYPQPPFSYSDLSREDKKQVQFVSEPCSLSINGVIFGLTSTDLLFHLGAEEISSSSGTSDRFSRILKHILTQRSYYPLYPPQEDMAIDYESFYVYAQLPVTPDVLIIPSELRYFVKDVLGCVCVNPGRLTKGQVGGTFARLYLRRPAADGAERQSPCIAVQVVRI
# T2 sequence (P49642 whole entry partner): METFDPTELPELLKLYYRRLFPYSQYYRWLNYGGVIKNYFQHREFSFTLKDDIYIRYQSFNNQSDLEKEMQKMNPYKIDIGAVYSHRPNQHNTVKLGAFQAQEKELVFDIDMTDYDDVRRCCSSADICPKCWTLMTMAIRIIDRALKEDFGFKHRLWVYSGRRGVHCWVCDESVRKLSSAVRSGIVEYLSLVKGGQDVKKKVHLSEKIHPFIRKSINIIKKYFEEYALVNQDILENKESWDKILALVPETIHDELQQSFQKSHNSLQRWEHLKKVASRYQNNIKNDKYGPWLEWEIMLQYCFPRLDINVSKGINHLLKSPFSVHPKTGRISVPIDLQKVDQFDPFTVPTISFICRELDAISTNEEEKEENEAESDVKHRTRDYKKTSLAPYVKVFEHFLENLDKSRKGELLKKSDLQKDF
# T2 sequence (P49643 whole entry partner): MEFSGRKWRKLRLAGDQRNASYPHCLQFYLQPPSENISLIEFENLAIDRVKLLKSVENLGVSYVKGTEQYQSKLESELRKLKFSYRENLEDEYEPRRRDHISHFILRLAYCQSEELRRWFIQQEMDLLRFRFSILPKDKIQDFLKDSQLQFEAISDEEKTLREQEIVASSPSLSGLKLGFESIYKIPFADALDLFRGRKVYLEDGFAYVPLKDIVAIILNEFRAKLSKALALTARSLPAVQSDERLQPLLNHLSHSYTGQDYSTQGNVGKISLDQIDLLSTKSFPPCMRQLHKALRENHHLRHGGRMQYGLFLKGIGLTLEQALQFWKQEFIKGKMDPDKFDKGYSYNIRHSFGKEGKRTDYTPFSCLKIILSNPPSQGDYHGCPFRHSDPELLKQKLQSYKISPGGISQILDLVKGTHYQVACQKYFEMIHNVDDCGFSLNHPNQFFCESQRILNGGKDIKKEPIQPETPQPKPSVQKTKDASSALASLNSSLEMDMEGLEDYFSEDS
# T3 sequence (P00582 whole entry): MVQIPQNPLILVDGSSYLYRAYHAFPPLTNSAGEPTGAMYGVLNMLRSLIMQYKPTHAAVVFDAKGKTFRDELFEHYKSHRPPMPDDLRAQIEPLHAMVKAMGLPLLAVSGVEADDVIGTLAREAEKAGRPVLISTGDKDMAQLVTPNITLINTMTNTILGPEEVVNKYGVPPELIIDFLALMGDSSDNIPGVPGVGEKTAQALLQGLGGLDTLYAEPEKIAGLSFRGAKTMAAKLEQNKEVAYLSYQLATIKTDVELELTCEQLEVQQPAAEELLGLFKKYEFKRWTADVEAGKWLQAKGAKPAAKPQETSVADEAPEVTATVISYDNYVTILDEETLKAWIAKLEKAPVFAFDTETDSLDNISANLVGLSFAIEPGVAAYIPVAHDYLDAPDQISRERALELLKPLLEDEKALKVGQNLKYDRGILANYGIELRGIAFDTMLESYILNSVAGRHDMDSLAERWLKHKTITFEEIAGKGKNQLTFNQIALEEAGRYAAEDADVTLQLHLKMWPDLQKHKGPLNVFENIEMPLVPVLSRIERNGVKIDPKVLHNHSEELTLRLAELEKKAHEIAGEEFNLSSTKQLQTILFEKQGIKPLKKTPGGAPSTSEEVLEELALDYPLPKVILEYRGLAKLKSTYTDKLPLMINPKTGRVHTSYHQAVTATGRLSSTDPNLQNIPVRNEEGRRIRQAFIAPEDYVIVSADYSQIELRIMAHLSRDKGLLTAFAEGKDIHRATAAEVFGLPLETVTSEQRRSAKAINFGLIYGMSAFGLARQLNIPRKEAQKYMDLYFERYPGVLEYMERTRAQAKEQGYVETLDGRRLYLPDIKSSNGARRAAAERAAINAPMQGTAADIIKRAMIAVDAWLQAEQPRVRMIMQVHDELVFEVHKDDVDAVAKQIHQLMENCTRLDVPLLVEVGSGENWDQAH
compound,measurement,setting,value
"OC[C@H]1S[C@@H](O)[C@H](O)[C@@H](O)[C@@H]1O [5-thioglucose, 5-bêta-D-thioglucose]",effet inhibiteur sur la HIV1-RT,HIV-RT,n'ont pas présenté d'effet
same,effet inhibiteur sur la HIV1-RT,HIV-RT; listed as 5-bêta-D-thioglucose,aucun effet
same,activité à l'encontre de la glycosylation de gp120 ou gp41,[1],actifs
same,minimal effective concentration,[1],~0.0035 µM
same,effet sur la R.T. (AMV),AMV-RT,n'ont pas présenté d'effet
same,MCC,[2],> 2 mM
same,toxicité vis-à-vis des cellules,cellules ALEX et MT-4,trop toxiques
"OC[C@H]1O[C@@H](S)[C@H](O)[C@@H](O)[C@@H]1O [1-thioglucose, 1-bêta-D-thioglucose]",effet inhibiteur sur la HIV1-RT,HIV-RT,n'ont pas présenté d'effet
same,effet inhibiteur sur la HIV1-RT,HIV-RT; listed as 1-bêta-D-thioglucose,aucun effet
same,activité à l'encontre de la glycosylation de gp120 ou gp41,[1],actifs
same,minimal effective concentration,[1],~0.0035 µM
same,effet sur la R.T. (AMV),AMV-RT,n'ont pas présenté d'effet
same,MCC,[2],> 2 mM
same,toxicité vis-à-vis des cellules,cellules ALEX et MT-4,trop toxiques
"Cc1cn([C@H]2C[C@H](N=[N+]=[N-])[C@@H](COP(=O)(O)OP(=O)(O)OP(=O)(O)O)O2)c(=O)[nH]c1=O [AZT phosphorylé, 3'-Azido-DTTP, reference compound]",effet inhibiteur sur la HIV1-RT,HIV-RT,inhibition
aurothiopropanol,effet inhibiteur sur la HIV1-RT,HIV-RT,inhibition; also recorded: effet inhibiteur
"OC[C@H]1O[C@@H]([S][Au])[C@H](O)[C@@H](O)[C@@H]1O [1-aurothioglucose, 1-bêta-D-aurothioglucose]",inhibition en utilisant des matrices d'ARN,"HIV-RT; RNA templates compared with DNA templates, Figure 3",résultats comparables
same,sensibilité de l'enzyme complexée à la matrice (b) et en phase d'élongation (c),HIV-RT; cases (b) and (c) compared,la même sensibilité
same,effets combinés de la zidovudine (AZT) et de l'aurothioglucose,HIV-RT; combined with zidovudine (AZT),additifs et qu'il existe une action synergique
same,quantité efficace pour bloquer le complexe HIV-R.T.-Substrat,"HIV-RT; complexe HIV-R.T.-Substrat à 40 nm, Figure 1",3 »m
same,diminution de la constante d'inhibition (Ki),"HIV-RT; free enzyme, case (a), compared with cases (b) and (c)",33%
same,activité par rapport à l'AZT triphosphate,HIV-RT; qualitative comparison,considérablement plus actif
same,activité inhibitrice sur les DNA polymèrases humaines,[3]; in vitro,activité inhibitrice faible
same,concentration en drogue à laquelle la polymérase est sensible,[3]; insensitive at concentrations lower than or equal to the value,> 1 mM
same,effet sur l'élongation des chaînes d'ADN par l'AMV-RT,"AMV-RT; Figure 5, lane 2, added after polymerisation of six nucleotides",inhibition de l'élongation de la chaîne
same,concentrations nécessaires pour bloquer AMV-RT,"AMV-RT; compared with HIV-RT, Figure 2",concentrations supérieures
same,inhibition de la DNA-polymérase-1 d'Escherichia Coli,"[4]; Figure 6, autoradiogram",inhibition
same,concentration en aurothioglucose à laquelle la polymérase est sensible,[4]; sensitive above the value,> 50 µM
same,concentration en aurothioglucose à laquelle la polymérase est sensible,[5],> 100 µM
same,association enzyme-matrice,[6],affaiblie
